Data: patent US20140179664A1, “Heterocyclyl Pyrimidine Analogues As JAK Inhibitors” (Cellzome Limited, priority 2011, published 2014)

Columns and labels:
Assay type in all cases: binding
TYK2 = target: T1, TYK2 (Homo sapiens, UniProt P29597); assay: Kinobeads assay, TYK2; settings: mixed Molt4/Ramos lysate, read-out: Inhibition values (IC50) TYK2
T1 construct: endogenous in cells; host or cells: Molt4 (ATCC CRL-1582) and Ramos (ATCC CRL-1596), mixed lysate 1:2
Procedure: (§1) The compounds of the present invention as described in the previous examples were tested in a Kinobeads™ assay as described for ZAP-70 (WO-A 2007/137867). Briefly, test compounds (at various concentrations) and the affinity matrix with the immobilized aminopyrido-pyrimidine ligand 24 were added to cell lysate aliquots and allowed to bind to the proteins in the lysate sample. After the incubation time the beads with captured proteins were separated from the lysate. Bound proteins were then eluted and the presence of JAK1, JAK2, JAK3 and TYK2 was detected and quantified using specific antibodies in a dot blot procedure and the Odyssey infrared detection system. Dose response curves for individual kinases were generated and IC50 values calculated. Kinobeads™ assays for ZAP-70 (WO-A 2007/137867) and for kinase selectivity profiling (WO-A 2006/134056) have been previously described.
(§2) The affinity matrix was washed two times with 15 mL of lx DP buffer containing 0.2% NP40 (IGEPAL® CA-630, Sigma, #13021) and then resuspended in 1×DP buffer containing 0.2% NP40 (3% beads slurry).
(§3) 5×DP buffer: 250 mM Tris-HCl pH 7.4, 25% Glycerol, 7.5 mM MgCl2, 750 mM NaCl, 5 mM Na3VO4; filter the 5×DP buffer through a 0.22 μm filter and store in aliquots at −80° C. The 5×DP buffer is diluted with H2O to 1×DP buffer containing 1 mM DTT and 25 mM NaF.
(§4) Stock solutions of test compounds were prepared in DMSO. In a 96 well plate […] solution of diluted test compounds at 5 mM in DMSO were prepared. Starting with this solution a 1:3 dilution series (9 steps) was prepared. For control experiments (no test compound) a buffer containing 2% DMSO was used.
(§5) Molt4 cells (ATCC catalogue number CRL-1582) and Ramos cells (ATCC catalogue number CRL-1596) were grown in 1 L Spinner flasks (Integra Biosciences, #182101) in suspension in RPMI 1640 medium (Invitrogen, #21875-034) supplemented with 10% Fetal Bovine Serum (Invitrogen) at a density between 0.15×10^6 and 1.2×10^6 cells/mL. Cells were harvested by centrifugation, washed once with 1×PBS buffer (Invitrogen, #14190-094) and cell pellets were frozen in liquid nitrogen and subsequently stored at −80° C. Cells were homogenized in a Potter S homogenizer in lysis buffer: 50 mM Tris-HCl, 0.8% NP40, 5% glycerol, 150 mM NaCl, 1.5 mM MgCl2, 25 mM NaF, 1 mM sodium vanadate, 1 mM DTT, pH 7.5. One complete EDTA-free tablet (protease inhibitor cocktail, Roche Diagnostics, 1873580) per 25 mL buffer was added. The material was dounced 10 times using a mechanized POTTER S, transferred to 50 mL falcon tubes, incubated for 30 minutes on ice and spun down for 10 minutes at 20,000 g at 4° C. (10,000 rpm in Sorvall SLA600, precooled). The supernatant was transferred to an ultracentrifuge (UZ)-polycarbonate tube (Beckmann, 355654) and spun for 1 hour at 100.000 g at 4° C. (33.500 rpm in Ti50.2, precooled). The supernatant was transferred again to a fresh 50 mL falcon tube, the protein concentration was determined by a Bradford assay (BioRad) and samples containing 50 mg of protein per aliquot were prepared. The samples were immediately used for experiments or frozen in liquid nitrogen and stored frozen at −80° C.
(§6) Cell lysate (approximately 50 mg protein per plate) was thawed in a water bath at room temperature and then stored on ice. To the thawed cell lysate 1×DP 0.8% NP40 buffer containing protease inhibitors (1 tablet for 25 mL buffer; EDTA-free protease inhibitor cocktail; Roche Diagnostics 1873580) was added in order to reach a final protein concentration of 10 mg/mL total protein. The diluted cell lysate was stored on ice. Mixed Molt4/Ramos lysate was prepared by combining one volume of Molt4 lysate and two volumes of Ramos lysate (ratio 1:2).
(§7) To a 96 well filter plate (Multiscreen HTS, BV Filter Plates, Millipore #MSBVN1250) were added per well: 100 μL affinity matrix (3% beads slurry), […], of compound solution, and 50 μL of diluted lysate. […]

JAK1 = target: T2, JAK1 (Homo sapiens, UniProt P23458); assay: Kinobeads assay, JAK1; settings: mixed Molt4/Ramos lysate, read-out: Inhibition values (IC50) JAK1
T2 construct: endogenous in cells; host or cells: Molt4 (ATCC CRL-1582) and Ramos (ATCC CRL-1596), mixed lysate 1:2
Procedure: After the incubation time the beads with captured proteins were separated from the lysate. Bound proteins were then eluted and the presence of JAK1, JAK2, JAK3 and TYK2 was detected and quantified using specific antibodies in a dot blot procedure and the Odyssey infrared detection system. Dose response curves for individual kinases were generated and IC50 values calculated.
as §3
Stock solutions of test compounds were prepared in DMSO. […] Starting with this solution a 1:3 dilution series (9 steps) was prepared. For control experiments (no test compound) a buffer containing 2% DMSO was used.
Cells were homogenized in a Potter S homogenizer in lysis buffer: 50 mM Tris-HCl, 0.8% NP40, 5% glycerol, 150 mM NaCl, 1.5 mM MgCl2, 25 mM NaF, 1 mM sodium vanadate, 1 mM DTT, pH 7.5. […] The material was dounced 10 times using a mechanized POTTER S, transferred to 50 mL falcon tubes, incubated for 30 minutes on ice and spun down for 10 minutes at 20,000 g at 4° C. (10,000 rpm in Sorvall SLA600, precooled). […] (33.500 rpm in Ti50.2, precooled). The supernatant was transferred again to a fresh 50 mL falcon tube, the protein concentration was determined by a Bradford assay (BioRad) and samples containing 50 mg of protein per aliquot were prepared. The samples were immediately used for experiments or frozen in liquid nitrogen and stored frozen at −80° C.
Cell lysate (approximately 50 mg protein per plate) was thawed in a water bath at room temperature and then stored on ice. […] The diluted cell lysate was stored on ice. Mixed Molt4/Ramos lysate was prepared by combining one volume of Molt4 lysate and two volumes of Ramos lysate (ratio 1:2).
Plates were sealed and incubated for 3 hours in a cold room on a plate shaker (Heidolph tiramax 1000) at 750 rpm. Afterwards the plate was washed 3 times with 230 μL washing buffer (1×DP 0.4% NP40). […] The eluate was frozen quickly at −80° C. and stored at −20° C.
Afterwards the membrane was washed twice for 10 minutes with PBS buffer containing 0.2% Tween 20 at room temperature. […] Afterwards the membrane was washed twice for 10 minutes each with 1×PBS buffer containing 0.2% Tween 20 at room temperature. Then the membrane was rinsed once with PBS buffer to remove residual Tween 20. The membrane was kept in PBS buffer at 4° C. and then scanned with the Odyssey instrument. Fluorescence signals were recorded and analysed according to the instructions of the manufacturer.

JAK2 = target: T3, JAK2 (Homo sapiens, UniProt O60674); assay: Kinobeads assay, JAK2; settings: mixed Molt4/Ramos lysate, read-out: Inhibition values (IC50) JAK2
T3 construct: endogenous in cells; host or cells: Molt4 (ATCC CRL-1582) and Ramos (ATCC CRL-1596), mixed lysate 1:2
Procedure: as §1, §2, §3, §4, §5, §6, §7

T3 sequence (O60674 whole entry): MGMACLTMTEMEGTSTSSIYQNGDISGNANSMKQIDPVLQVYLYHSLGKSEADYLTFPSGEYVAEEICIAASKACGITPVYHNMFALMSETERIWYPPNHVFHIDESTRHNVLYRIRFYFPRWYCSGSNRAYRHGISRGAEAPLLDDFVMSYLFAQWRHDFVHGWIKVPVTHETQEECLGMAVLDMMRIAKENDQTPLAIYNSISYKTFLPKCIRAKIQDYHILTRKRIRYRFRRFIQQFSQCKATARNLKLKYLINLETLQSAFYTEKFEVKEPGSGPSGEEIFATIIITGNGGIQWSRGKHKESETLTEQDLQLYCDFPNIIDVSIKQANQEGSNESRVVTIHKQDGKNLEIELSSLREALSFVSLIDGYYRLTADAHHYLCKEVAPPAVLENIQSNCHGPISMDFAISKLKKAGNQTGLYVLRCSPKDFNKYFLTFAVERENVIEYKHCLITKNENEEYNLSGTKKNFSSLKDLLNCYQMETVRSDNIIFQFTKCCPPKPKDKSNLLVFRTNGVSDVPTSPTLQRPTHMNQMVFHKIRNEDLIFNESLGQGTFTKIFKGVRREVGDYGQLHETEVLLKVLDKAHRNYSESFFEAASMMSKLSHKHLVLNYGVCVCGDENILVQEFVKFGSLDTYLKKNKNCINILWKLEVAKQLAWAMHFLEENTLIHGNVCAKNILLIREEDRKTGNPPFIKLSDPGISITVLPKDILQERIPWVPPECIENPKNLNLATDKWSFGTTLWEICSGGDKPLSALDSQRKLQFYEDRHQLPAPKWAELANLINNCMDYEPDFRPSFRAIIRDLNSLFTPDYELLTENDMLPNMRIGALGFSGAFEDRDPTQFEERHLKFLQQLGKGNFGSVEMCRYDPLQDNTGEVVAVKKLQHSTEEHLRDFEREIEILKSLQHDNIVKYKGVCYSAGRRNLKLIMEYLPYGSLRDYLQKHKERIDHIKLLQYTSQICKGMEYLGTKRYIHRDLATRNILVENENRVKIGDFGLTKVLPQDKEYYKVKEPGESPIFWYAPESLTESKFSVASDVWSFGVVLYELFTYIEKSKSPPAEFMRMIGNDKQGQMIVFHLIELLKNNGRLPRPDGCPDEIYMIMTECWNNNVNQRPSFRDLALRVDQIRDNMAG
T1 sequence (P29597 whole entry): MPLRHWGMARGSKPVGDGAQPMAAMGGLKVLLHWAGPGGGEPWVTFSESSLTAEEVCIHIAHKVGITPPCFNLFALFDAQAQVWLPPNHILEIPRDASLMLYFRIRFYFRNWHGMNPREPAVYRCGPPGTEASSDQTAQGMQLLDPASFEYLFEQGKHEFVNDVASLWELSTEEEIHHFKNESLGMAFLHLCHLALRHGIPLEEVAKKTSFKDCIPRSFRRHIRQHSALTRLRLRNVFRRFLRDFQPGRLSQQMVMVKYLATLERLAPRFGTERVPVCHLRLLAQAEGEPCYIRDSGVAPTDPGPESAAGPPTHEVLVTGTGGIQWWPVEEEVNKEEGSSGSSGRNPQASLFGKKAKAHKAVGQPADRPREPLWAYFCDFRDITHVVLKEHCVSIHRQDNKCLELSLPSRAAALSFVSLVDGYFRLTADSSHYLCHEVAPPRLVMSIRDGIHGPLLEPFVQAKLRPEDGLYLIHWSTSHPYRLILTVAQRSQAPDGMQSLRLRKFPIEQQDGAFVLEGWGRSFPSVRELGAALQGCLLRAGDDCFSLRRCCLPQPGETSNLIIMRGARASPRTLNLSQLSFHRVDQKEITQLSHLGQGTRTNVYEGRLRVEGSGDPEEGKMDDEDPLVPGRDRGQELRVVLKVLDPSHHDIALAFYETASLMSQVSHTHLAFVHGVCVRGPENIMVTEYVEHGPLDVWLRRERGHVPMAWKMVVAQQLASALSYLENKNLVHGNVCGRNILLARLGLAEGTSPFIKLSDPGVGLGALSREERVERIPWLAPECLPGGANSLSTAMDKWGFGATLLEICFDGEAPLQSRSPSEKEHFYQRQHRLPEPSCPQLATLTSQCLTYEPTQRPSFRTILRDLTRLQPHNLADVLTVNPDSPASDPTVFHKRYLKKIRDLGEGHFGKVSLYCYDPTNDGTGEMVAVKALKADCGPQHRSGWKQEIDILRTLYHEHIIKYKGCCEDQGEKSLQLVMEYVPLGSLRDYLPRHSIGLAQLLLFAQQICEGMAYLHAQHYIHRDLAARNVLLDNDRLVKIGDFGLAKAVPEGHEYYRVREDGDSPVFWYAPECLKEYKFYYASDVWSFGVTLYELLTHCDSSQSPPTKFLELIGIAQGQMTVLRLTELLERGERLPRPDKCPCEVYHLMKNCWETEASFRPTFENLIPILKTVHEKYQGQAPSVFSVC
T2 sequence (P23458 whole entry): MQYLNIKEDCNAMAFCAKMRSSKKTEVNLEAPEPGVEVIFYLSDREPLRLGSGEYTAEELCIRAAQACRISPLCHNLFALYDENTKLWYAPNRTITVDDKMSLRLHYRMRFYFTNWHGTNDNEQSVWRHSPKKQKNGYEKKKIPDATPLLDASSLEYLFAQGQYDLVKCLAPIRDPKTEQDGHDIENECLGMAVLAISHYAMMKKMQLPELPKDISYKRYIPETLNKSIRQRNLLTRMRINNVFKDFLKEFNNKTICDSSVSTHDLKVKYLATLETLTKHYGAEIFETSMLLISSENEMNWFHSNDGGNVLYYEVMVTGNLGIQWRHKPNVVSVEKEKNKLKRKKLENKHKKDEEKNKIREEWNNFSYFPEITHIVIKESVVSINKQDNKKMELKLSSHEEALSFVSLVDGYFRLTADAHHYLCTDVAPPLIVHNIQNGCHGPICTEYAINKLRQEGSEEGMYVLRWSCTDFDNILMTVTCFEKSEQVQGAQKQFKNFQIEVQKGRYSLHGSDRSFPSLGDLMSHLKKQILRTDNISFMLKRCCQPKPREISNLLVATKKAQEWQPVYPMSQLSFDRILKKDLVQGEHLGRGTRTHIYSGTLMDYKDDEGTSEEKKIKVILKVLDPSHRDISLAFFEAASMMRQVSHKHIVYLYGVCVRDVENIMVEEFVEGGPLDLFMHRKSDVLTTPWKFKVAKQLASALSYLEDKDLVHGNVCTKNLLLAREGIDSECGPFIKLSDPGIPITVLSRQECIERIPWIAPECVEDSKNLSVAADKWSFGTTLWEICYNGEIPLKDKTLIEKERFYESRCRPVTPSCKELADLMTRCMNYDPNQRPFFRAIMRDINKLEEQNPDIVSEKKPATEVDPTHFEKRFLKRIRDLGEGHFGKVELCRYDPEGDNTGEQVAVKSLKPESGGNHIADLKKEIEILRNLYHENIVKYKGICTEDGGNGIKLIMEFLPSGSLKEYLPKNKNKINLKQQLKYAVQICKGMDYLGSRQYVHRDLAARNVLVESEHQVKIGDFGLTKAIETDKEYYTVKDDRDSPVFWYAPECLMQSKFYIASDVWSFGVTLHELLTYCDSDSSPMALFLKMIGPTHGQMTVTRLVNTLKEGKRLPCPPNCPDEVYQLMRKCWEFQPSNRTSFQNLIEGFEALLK

SMILES | IC50 (TYK2) [µM] | IC50 (JAK1) [µM] | IC50 (JAK2) [µM]
Cc1cnc(Nc2cnn(CC(=O)N(C)C)c2)nc1N[C@H](CO)c1ccccc1 [Compound 134] | 1 to 10 | 0.1 to 1 | 1 to 10
Cc1cnc(Nc2cnn(C)c2)nc1N[C@H](CO)c1cc(F)ccc1F [Compound 163] | 0.1 to 1 | 0.1 to 1 | 0.1 to 1
CC(C)OCCn1cc(Nc2ncc(Cl)c(N[C@H](CO)c3ccccc3)n2)cn1 [Compound 114] | 1 to 10 | 1 to 10 | 1 to 10
COc1ccccc1[C@@H](CO)Nc1nc(Nc2cnn(CC(=O)N3CCOCC3)c2)ncc1Cl [Compound 101] | < 0.1 | 0.1 to 1 | 1 to 10
Cn1cc(Nc2ncc(F)c(N[C@H](CO)c3cc(F)ccc3F)n2)cn1 [Compound 146] | 0.1 to 1 | 0.1 to 1 | 1 to 10
CNC(=O)Cn1cc(Nc2ncc(F)c(N[C@H](CO)c3cc(F)cc(F)c3)n2)cn1 [Compound 161] | 0.1 to 1 | 0.1 to 1 | 1 to 10
Cn1cc(Nc2ncc(Cl)c(N[C@H](CO)c3cccc(N4CCOCC4=O)c3F)n2)cn1 [Compound 162] | ≥ 10 | 1 to 10 | ≥ 10
Cn1cc(Nc2ncc(Cl)c(NC(CO)c3cc(F)cc(F)c3)n2)cn1 (stereo not drawn) [Compound 121] | 1 to 10 | 0.1 to 1 | 1 to 10

Results, then the compound that gave them:

IC50 (TYK2) [µM] | IC50 (JAK1) [µM] | IC50 (JAK2) [µM] | SMILES
1 to 10 | 1 to 10 | 1 to 10 | Cn1cc(Nc2ncc(F)c(N[C@H](CO)c3cc(F)cc(F)c3)n2)cn1 [Compound 158]
0.1 to 1 | < 0.1 | 0.1 to 1 | NC(=O)Cn1cc(Nc2ncc(Cl)c(N[C@H](CO)c3cc(F)cc(F)c3)n2)cn1 [Compound 144]
0.1 to 1 | 0.1 to 1 | 1 to 10 | OCCn1cc(Nc2ncc(F)c(N[C@H](CO)c3cc(F)cc(F)c3)n2)cn1 [Compound 159]
0.1 to 1 | < 0.1 | 0.1 to 1 | NC(=O)Cn1cc(Nc2ncc(Cl)c(NC(CO)c3cc(F)ccc3F)n2)cn1 (stereo not drawn) [Compound 132]
1 to 10 | 1 to 10 | ≥ 10 | NC(=O)Cn1cc(Nc2ncc(F)c(N[C@H](CO)c3ccccc3)n2)cn1 [Compound 108]
1 to 10 | 1 to 10 | 1 to 10 | CCn1cc(Nc2ncc(Cl)c(N[C@H](CO)c3ccccc3F)n2)cn1 [Compound 109]
1 to 10 | > 10 | 1 to 10 | COc1cccc([C@@H](CO)Nc2nc(Nc3cnn(C(C)C)c3)ncc2Cl)c1 [Compound 106]
1 to 10 | 1 to 10 | ≥ 10 | OCCn1cc(Nc2ncc(F)c(N[C@H](CO)c3ccccc3)n2)cn1 [Compound 10]
